Patent US9561231B2 (AbbVie Inc., priority 2012, dated 2017)

Legend:
[1] = molecular target: T1, first (BD1: amino acids K57-E168) bromodomain of BRD4 (Homo sapiens, UniProt O60885); assay: TR-FRET bromodomain binding assay, BRD4 BD1; settings: TR-FRET assay protocol (A-G, compound concentration range); Ki calculated from IC50, probe Kd and probe concentration; read-out: TR-FRET Binding Ki: BRD4 (BDI_K57-E168)
T1 construct: His-tagged first (BD1: amino acids K57-E168)
Summary of the method: (§1)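 Compounds were serially diluted in DMSO, diluted into pH 6.0 phosphate buffer with NaCl, EDTA, Triton X-100 and DTT, then combined with His-tagged bromodomain and an Alexa647-labeled BET-inhibitor probe. TR-FRET was read, percent inhibition fitted to give IC50, and Ki derived using probe Kd.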

[2] = molecular target: T2, second (BD2: amino acids E352-E168) bromodomain of BRD4 (Homo sapiens, UniProt O60885); assay: TR-FRET bromodomain binding assay, BRD4 BD2; settings: TR-FRET assay protocol (A-G, compound concentration range); Ki calculated from IC50, probe Kd and probe concentration; read-out: TR-FRET Binding Ki: BRD4 (BDII_E352-M457)
T2 construct: protocol
Summary of the method: as §1

Row | SMILES | Ki [1] [nM] | Ki [2] [nM]
1 | CCOc1cc(=O)n(C)cc1-c1cc(NC(=O)c2ccc(OC(C)C)cc2)ccc1Oc1ccc(F)cc1F [Example 301, N-[4-(2,4-difluorophenoxy)-3-(4-ethoxy-1-methyl-6-oxo-1,6-dihydropyridin-3-yl)phenyl]-4-(propan-2-yloxy)benzamide] | 61.8 | 55.6
2 | CCOc1cc(=O)n(C)cc1-c1cc(NC(=O)c2ccccc2CCc2ccccc2)ccc1Oc1ccc(F)cc1F [Example 302, N-[4-(2,4-difluorophenoxy)-3-(4-ethoxy-1-methyl-6-oxo-1,6-dihydropyridin-3-yl)phenyl]-2-(2-phenylethyl)benzamide] | 209 | 47.2
3 | CCOc1cc(=O)n(C)cc1-c1cc(NC(=O)c2ccc(N(CC)CC)cc2)ccc1Oc1ccc(F)cc1F [Example 303, 4-(diethylamino)-N-[4-(2,4-difluorophenoxy)-3-(4-ethoxy-1-methyl-6-oxo-1,6-dihydropyridin-3-yl)phenyl]benzamide] | 233 | 201
4 | CCOc1cc(=O)n(C)cc1-c1cc(NC(=O)c2ccc(-c3ccccc3)cc2)ccc1Oc1ccc(F)cc1F [Example 304, N-[4-(2,4-difluorophenoxy)-3-(4-ethoxy-1-methyl-6-oxo-1,6-dihydropyridin-3-yl)phenyl]biphenyl-4-carboxamide] | 195 | 359
5 | CCOc1cc(=O)n(C)cc1-c1cc(NCC(C)(C)C)ccc1Oc1ccc(F)cc1F [Example 305, 5-{2-(2,4-difluorophenoxy)-5-[(2,2-dimethylpropyl)amino]phenyl}-4-ethoxy-1-methylpyridin-2(1H)-one] | 557 | 271
6 | CCOc1cc(=O)n(C)cc1-c1cc(NCCC(C)(C)C)ccc1Oc1ccc(F)cc1F [Example 306, 5-{2-(2,4-difluorophenoxy)-5-[(3,3-dimethylbutyl)amino]phenyl}-4-ethoxy-1-methylpyridin-2(1H)-one] | 542 | 349
7 | CCOc1cc(=O)n(C)cc1-c1cc(NS(=O)(=O)c2ccc(S(C)(=O)=O)cc2)ccc1Oc1ccc(F)cc1F [Example 307, N-[4-(2,4-difluorophenoxy)-3-(4-ethoxy-1-methyl-6-oxo-1,6-dihydropyridin-3-yl)phenyl]-4-(methylsulfonyl)benzenesulfonamide] | 94.9 | 41.6
8 | CCOc1cc(=O)n(C)cc1-c1cc(NS(=O)(=O)c2ccc(OC(F)(F)F)cc2)ccc1Oc1ccc(F)cc1F [Example 308, N-[4-(2,4-difluorophenoxy)-3-(4-ethoxy-1-methyl-6-oxo-1,6-dihydropyridin-3-yl)phenyl]-4-(trifluoromethoxy)benzenesulfonamide] | 318 | 65.9
9 | CCOc1cc(=O)n(C)cc1-c1cc(NS(=O)(=O)c2ccc(-c3ccccc3)cc2)ccc1Oc1ccc(F)cc1F [Example 309, N-[4-(2,4-difluorophenoxy)-3-(4-ethoxy-1-methyl-6-oxo-1,6-dihydropyridin-3-yl)phenyl]biphenyl-4-sulfonamide] | 359 | 151
10 | CCOc1cc(=O)n(C)cc1-c1cc(NS(=O)(=O)C[C@]23CC[C@H](CC2=O)C3(C)C)ccc1Oc1ccc(F)cc1F [Example 310, N-[4-(2,4-difluorophenoxy)-3-(4-ethoxy-1-methyl-6-oxo-1,6-dihydropyridin-3-yl)phenyl]-1-[(1S,4R)-7,7-dimethyl-2-oxobicyclo[2.2.1]hept-1-yl]methanesulfonamide] | 200 | 38.9
11 | CCS(=O)(=O)c1ccc(Oc2ccc(F)cc2F)c(-c2cn(C)c(=O)cc2Oc2ccc(F)cc2F)c1 [Example 317, 4-(2,4-difluorophenoxy)-5-[2-(2,4-difluorophenoxy)-5-(ethylsulfonyl)phenyl]-1-methylpyridin-2(1H)-one] | 377 | 182
12 | CCS(=O)(=O)Nc1ccc(Oc2ccc(OC3CCN(C(=O)OC(C)(C)C)CC3)cc2F)c(-c2cn(C)c(=O)cc2OC2CCN(C(=O)OC(C)(C)C)CC2)c1 [Example 320, tert-butyl 4-[(5-{2-(4-{[1-(tert-butoxycarbonyl)piperidin-4-yl]oxy}-2-fluorophenoxy)-5-[(ethylsulfonyl)amino]phenyl}-1-methyl-2-oxo-1,2-dihydropyridin-4-yl)oxy]piperidine-1-carboxylate] | > 2380 | 275
13 | CCS(=O)(=O)Nc1ccc(Oc2ccc(F)cc2F)c(-c2cn(C)c(=O)cc2-c2ccccc2O)c1 [Example 331, N-{4-(2,4-difluorophenoxy)-3-[4-(2-hydroxyphenyl)-1-methyl-6-oxo-1,6-dihydropyridin-3-yl]phenyl}ethanesulfonamide] | 164 | 551
14 | CCS(=O)(=O)Nc1ccc(Oc2ccc(F)cc2F)c(-c2cn(C)c(=O)cc2-c2cscc2C=O)c1 [Example 332, N-{4-(2,4-difluorophenoxy)-3-[4-(4-formylthiophen-3-yl)-1-methyl-6-oxo-1,6-dihydropyridin-3-yl]phenyl}ethanesulfonamide] | 1010 | 205
15 | Cn1cc(-c2cc(S(C)(=O)=O)ccc2NCC2CC2)c(OC(C)(C)C(C)(C)O)cc1=O [Example 341, 5-{2-[(cyclopropylmethyl)amino]-5-(methylsulfonyl)phenyl}-4-[(3-hydroxy-2,3-dimethylbutan-2-yl)oxy]-1-methylpyridin-2(1H)-one] | > 2380 | > 4080
16 | CCOc1cc(=O)n(C)cc1-c1cc(NS(=O)(=O)c2ccc(Cl)cc2F)ccc1Oc1ccc(F)cc1F [Example 348, 4-chloro-N-[4-(2,4-difluorophenoxy)-3-(4-ethoxy-1-methyl-6-oxo-1,6-dihydropyridin-3-yl)phenyl]-2-fluorobenzenesulfonamide] | 196 | 63.1

Continued, values first:

Row | Ki [1] [nM] | Ki [2] [nM] | SMILES
17 | 353 | 2150 | Cc1cc(-c2ccc(-c3ccc(=O)n(C)c3)c(OCC3CC3)c2)[nH]n1 [Example 312, 5-[2-(cyclopropylmethoxy)-4-(3-methyl-1H-pyrazol-5-yl)phenyl]-1-methylpyridin-2(1H)-one]
18 | 642 | 229 | CCS(=O)(=O)c1ccc(Oc2ccccc2C#CCO)c(-c2cn(C)c(=O)cc2Cl)c1 [Example 314, 4-chloro-5-{5-(ethylsulfonyl)-2-[2-(3-hydroxyprop-1-yn-1-yl)phenoxy]phenyl}-1-methylpyridin-2(1H)-one]
19 | 680 | 1110 | CCO/C=C/c1cc(=O)n(C)cc1-c1cc(S(C)(=O)=O)ccc1NCC1CC1 [Example 327, 5-{2-[(cyclopropylmethyl)amino]-5-(methylsulfonyl)phenyl}-4-[(E)-2-ethoxyethenyl]-1-methylpyridin-2(1H)-one]
20 | 611 | 1830 | CCO/C=C\c1cc(=O)n(C)cc1-c1cc(S(C)(=O)=O)ccc1NCC1CC1 [Example 337, 5-{2-[(cyclopropylmethyl)amino]-5-(methylsulfonyl)phenyl}-4-[(Z)-2-ethoxyethenyl]-1-methylpyridin-2(1H)-one]
21 | 114 | 702 | CCOC(=O)Nc1cc(-c2cc(S(=O)(=O)CC)ccc2OCC2CC2)cn(C)c1=O [Example 338, ethyl{5-[2-(cyclopropylmethoxy)-5-(ethylsulfonyl)phenyl]-1-methyl-2-oxo-1,2-dihydropyridin-3-yl}carbamate]
22 | 172 | 971 | CCS(=O)(=O)c1ccc(OCC2CC2)c(-c2cc(NS(C)(=O)=O)c(=O)n(C)c2)c1 [Example 339, N-{5-[2-(cyclopropylmethoxy)-5-(ethylsulfonyl)phenyl]-1-methyl-2-oxo-1,2-dihydropyridin-3-yl}methanesulfonamide]
23 | 1390 | 752 | Cc1cccc(OCC2CC2)c1-c1ccc(=O)n(C)c1 [Example 356, 5-[2-(cyclopropylmethoxy)-6-methylphenyl]-1-methylpyridin-2(1H)-one]
24 | 159 | 1420 | CCS(=O)(=O)c1ccc(OCC2CC2)c(-c2cc(N)c(=O)n(C)c2)c1 [Example 357, 3-amino-5-[2-(cyclopropylmethoxy)-5-(ethylsulfonyl)phenyl]-1-methylpyridin-2(1H)-one]
25 | 127 | 700 | CCS(=O)(=O)c1ccc(O[C@H]2CC[C@@](C)(OC)CC2)c(-c2ccc(=O)n(C)c2)c1 [Example 360, 5-{5-(ethylsulfonyl)-2-[(cis-4-methoxy-4-methylcyclohexyl)oxy]phenyl}-1-methylpyridin-2(1H)-one]
26 | 600 | 1170 | CCS(=O)(=O)c1ccc(OCC2CC2)c(-c2cc(NC(C)=O)c(=O)n(C)c2)c1 [Example 361, N-{5-[2-(cyclopropylmethoxy)-5-(ethylsulfonyl)phenyl]-1-methyl-2-oxo-1,2-dihydropyridin-3-yl}acetamide]
27 | 1350 | > 4440 | CCS(=O)(=O)Nc1ccc(OCC2CC2)c(-c2ccc(=O)n(C)c2)c1C [Example 365, N-[4-(cyclopropylmethoxy)-2-methyl-3-(1-methyl-6-oxo-1,6-dihydropyridin-3-yl)phenyl]ethanesulfonamide]
28 | 629 | 570 | CCS(=O)(=O)Nc1cc(-c2ccc(=O)n(C)c2)c(OCC2CC2)cc1C [Example 366, N-[4-(cyclopropylmethoxy)-2-methyl-5-(1-methyl-6-oxo-1,6-dihydropyridin-3-yl)phenyl]ethanesulfonamide]
